The target in one test is T1, ROCK1 (Homo sapiens, UniProt Q13464).
T1 construct: purchased Upstate/Chemicon 14-601
The test is described as follows: Rho kinase inhibition assay (IMAP fluorescence polarization), ROCK1.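 Note: kinase reaction run 60 min at room temperature, then phosphorylated substrate captured on IMAP beads for 30 min, with fluorescence polarization read in mP.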 The class given is biochemical. For orientation: Polarisation of emitted light reports the rotation of a fluorescent probe.

A further test has as its target T2, ROCK2 (Homo sapiens, UniProt O75116).
T2 construct: purchased Upstate/Chemicon 14-451
In words: Rho kinase inhibition assay (IMAP fluorescence polarization), ROCK2.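 Note: kinase reaction started with 10 µM ATP and run 60 min at room temperature, then phosphorylated substrate captured on IMAP beads for 30 min and fluorescence polarization read in mP.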 The class given is biochemical.

The mark [1] stands for this setting: 10 μM ATP, read-out: ROCK2 Ki, Avg.

Molecules are shown by their SMILES. Where two headings read alike, the source gives them in different places.

T2 sequence (O75116 11-552 limits assumed): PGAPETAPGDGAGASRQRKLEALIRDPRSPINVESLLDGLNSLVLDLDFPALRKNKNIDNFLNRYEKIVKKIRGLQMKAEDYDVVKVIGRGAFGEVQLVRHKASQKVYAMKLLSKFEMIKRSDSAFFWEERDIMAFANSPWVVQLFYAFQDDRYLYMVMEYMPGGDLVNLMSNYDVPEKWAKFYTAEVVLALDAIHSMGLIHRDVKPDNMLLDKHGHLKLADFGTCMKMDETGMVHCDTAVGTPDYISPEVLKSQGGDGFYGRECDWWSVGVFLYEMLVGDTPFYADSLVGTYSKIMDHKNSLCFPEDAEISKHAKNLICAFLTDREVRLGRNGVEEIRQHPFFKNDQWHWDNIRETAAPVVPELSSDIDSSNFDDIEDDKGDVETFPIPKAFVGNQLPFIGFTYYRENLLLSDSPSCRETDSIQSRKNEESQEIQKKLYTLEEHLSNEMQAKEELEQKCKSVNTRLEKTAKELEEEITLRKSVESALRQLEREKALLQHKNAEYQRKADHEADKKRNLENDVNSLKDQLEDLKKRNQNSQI
T1 sequence (Q13464 17-535 limits assumed): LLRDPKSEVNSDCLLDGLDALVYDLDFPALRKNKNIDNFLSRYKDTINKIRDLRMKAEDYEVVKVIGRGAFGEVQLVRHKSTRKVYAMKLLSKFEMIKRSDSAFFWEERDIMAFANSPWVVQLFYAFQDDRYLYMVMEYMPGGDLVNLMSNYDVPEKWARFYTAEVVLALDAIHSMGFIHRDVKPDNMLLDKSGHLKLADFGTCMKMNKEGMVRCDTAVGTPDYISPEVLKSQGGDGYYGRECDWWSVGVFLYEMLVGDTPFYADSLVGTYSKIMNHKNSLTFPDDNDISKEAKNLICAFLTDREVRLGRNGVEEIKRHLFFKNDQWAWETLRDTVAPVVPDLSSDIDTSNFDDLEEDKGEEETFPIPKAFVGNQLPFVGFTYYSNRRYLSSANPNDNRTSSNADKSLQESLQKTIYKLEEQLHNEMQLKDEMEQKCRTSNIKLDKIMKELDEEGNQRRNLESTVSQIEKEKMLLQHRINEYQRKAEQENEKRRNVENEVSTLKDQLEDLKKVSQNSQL
Procedure for ROCK1: (§1) Following the pre-incubation, 10 μM ATP was added to initiate the reaction. After 60 minutes at room temperature, Molecular Devices IMAP™ binding solution was added to bind phosphorylated substrate. After 30 minutes of incubation in the presence of the IMAP™ beads, the fluorescence polarization was read and the ratio was reported as mP. IC50 values for compounds and EC50 values for ATP were calculated using the Prism software from Graphpad.
Procedure for ROCK2: as §1

With `O=C(Nc1cccc(CN2CCC[C@@H](Nc3ccc4[nH]ncc4c3)C2)c1)N1CCCC1` [Compound 1.266, (R)-N-(3-((3-(1H-indazol-5-ylamino)piperidin-1-yl)methyl)phenyl)pyrrolidine-1-carboxamide], the Ki worked out at 53.8 nM on ROCK1 (Avg, 10 μM ATP) and 17.1 nM on ROCK2 (setting [1]).
On the same counts, the results for `Clc1ccc(CN2CCC[C@H](Nc3ccc4[nH]ncc4c3)C2)cc1Cl` [Compound 1.080, (S)-N-(1-(3,4-dichlorobenzyl)piperidin-3-yl)-1H-indazol-5-amine] are 131 nM and 15.2 nM.
On the same counts, the results for `CC(=O)NCc1cccc(CN2CC[C@@H](Nc3cccc4cnccc34)C2)c1` [Compound 2.063, (R)-N-(3-((3-(isoquinolin-5-ylamino)pyrrolidin-1-yl)methyl)benzyl)acetamide] are 206 nM and 73.9 nM.
On the same counts, the results for `NCc1ccc(CN2CCC[C@H](Nc3ccc4[nH]ncc4c3)C2)cc1` [Compound 1.201, (S)-N-(1-(4-(aminomethyl)benzyl)piperidin-3-yl)-1H-indazol-5-amine] are 1590 nM and 230 nM.
As to `COc1ccc(CN2CC[C@@H](Nc3cccc4cnccc34)C2)cc1OCCO` [Compound 2.067, (R)-2-(5-((3-(isoquinolin-5-ylamino)pyrrolidin-1-yl)methyl)-2-methoxyphenoxy)ethanol], the Ki on ROCK1 (Avg, 10 μM ATP) worked out at 19.6 nM; at ROCK1 (average Ki), 19.6 nM; on ROCK2 (setting [1]), 4.2 nM; on ROCK2 (average Ki, read-out: ROCK2 Ki), 4.2 nM.
For `Cc1nc(CN2CCC[C@H](Nc3ccc4[nH]ncc4c3)C2)c(C)o1` [Compound 1.279, (S)-N-(1-((2,5-dimethyloxazol-4-yl)methyl)piperidin-3-yl)-1H-indazol-5-amine], the Ki at ROCK1 (Avg, 10 μM ATP) is 456 nM; on ROCK2 (setting [1]), 34.2 nM.
The like results for `Cc1nc(CN2CC[C@@H](Nc3cccc4cnccc34)C2)c(C)o1` [Compound 2.091, (R)-N-(1-((2,5-dimethyloxazol-4-yl)methyl)pyrrolidin-3-yl)isoquinolin-5-amine] were, in that order, 776 nM and 237 nM.
On the same counts, the results for `OCC1COc2ccc(CN3CCC[C@@H](Nc4ccc5[nH]ncc5c4)C3)cc2O1` (stereo partly drawn) [Compound 1.264, (7-(((R)-3-(1H-indazol-5-ylamino)piperidin-1-yl)methyl)-2,3-dihydrobenzo[b][1,4]dioxin-2-yl)methanol] are 494 nM and 59.4 nM.
The like results for `OCCOc1cccc(CN2CCC(Nc3ccc4[nH]ncc4c3)CC2)c1` [Compound 1.130, 2-(3-((4-(1H-indazol-5-ylamino)piperidin-1-yl)methyl)phenoxy)ethanol] were, in that order, 577 nM and 142 nM.
On to `OCCCOc1cccc(CN2CCC[C@H](Nc3ccc4[nH]ncc4c3)C2)c1` [Compound 1.230, (S)-3-(3-((3-(1H-indazol-5-ylamino)piperidin-1-yl)methyl)phenoxy)propan-1-ol], for which the Ki at ROCK1 (Avg, 10 μM ATP) amounted to 346 nM; on ROCK2 (setting [1]), 35.3 nM.
On the same counts, the results for `c1cc(CN2CCC[C@@H](Nc3ccc4[nH]ncc4c3)C2)cc(C2CC2)c1` [Compound 1.202, (R)-N-(1-(3-cyclopropylbenzyl)piperidin-3-yl)-1H-indazol-5-amine] are 203 nM and 33 nM.
Consider `[O-][n+]1ccc2c(N[C@@H]3CCN(Cc4cccc(OCCO)c4)C3)cccc2c1` [Compound 2.081, (R)-5-(1-(3-(2-hydroxyethoxy)benzyl)pyrrolidin-3-ylamino)isoquinoline 2-oxide], for which the Ki worked out at 1450 nM at ROCK1 (Avg, 10 μM ATP) and 1110 nM at ROCK2 (setting [1]).
The like results for `CCSc1ccc(CN2CCC[C@H](Nc3ccc4[nH]ncc4c3)C2)cc1` [Compound 1.168, (S)-N-(1-(4-(ethylthio)benzyl)piperidin-3-yl)-1H-indazol-5-amine] were, in that order, 162 nM and 22.9 nM.
With `Cn1ccnc1CN1CCC[C@H](Nc2ccc3[nH]ncc3c2)C1` [Compound 1.257, (S)-N-(1-((1-methyl-1H-imidazol-2-yl)methyl)piperidin-3-yl)-1H-indazol-5-amine], the Ki at ROCK1 (Avg, 10 μM ATP) was 1270 nM; at ROCK2 (setting [1]) it was 168 nM.
The like results for `COc1ccc(CN2CC[C@@H](Nc3cccc4cnccc34)C2)cc1NS(C)(=O)=O` [Compound 2.098, (R)-N-(5-((3-(isoquinolin-5-ylamino)pyrrolidin-1-yl)methyl)-2-methoxyphenyl)methanesulfonamide] were, in that order, 382 nM and 73.5 nM.
For the molecule `CS(=O)(=O)N1CCCc2cc(CN3CCC[C@H](Nc4ccc5[nH]ncc5c4)C3)ccc21` [Compound 1.272, (S)-N-(1-((1-(methylsulfonyl)-1,2,3,4-tetrahydroquinolin-6-yl)methyl)piperidin-3-yl)-1H-indazol-5-amine], the Ki on ROCK1 (Avg, 10 μM ATP) is 1820 nM; on ROCK2 (setting [1]), 194 nM.
On to `CC(C)(C)OC(=O)NCc1cccc(CN2CCC[C@@H](Nc3ccc4[nH]ncc4c3)C2)c1` [Compound 1.140, (R)-tert-butyl 3-((3-(1H-indazol-5-ylamino)piperidin-1-yl)methyl)benzylcarbamate], for which the Ki was 236 nM at ROCK1 (Avg, 10 μM ATP) and 32.9 nM on ROCK2 (setting [1]).
The like results for `CC(=O)NCc1cccc(CN2CCC[C@@H](Nc3ccc4[nH]ncc4c3)C2)c1` [Compound 1.194] were, in that order, 176 nM and 20.2 nM.
With `OCCn1cc(CN2CC[C@@H](Nc3cccc4cnccc34)C2)c2ccccc21` [Compound 2.072, (R)-2-(3-((3-(isoquinolin-5-ylamino)pyrrolidin-1-yl)methyl)-1H-indol-1-yl)ethanol], the Ki at ROCK1 (Avg, 10 μM ATP) stood at 7.5 nM; at ROCK1 (average Ki), 7.5 nM; at ROCK2 (setting [1]), 4.4 nM; at ROCK2 (average Ki, read-out: ROCK2 Ki), 4.4 nM.
Turning to `COc1ccc(CN2CCC[C@H](Nc3cccc4cnccc34)C2)cc1` [Compound 2.053, (S)-N-(1-(4-methoxybenzyl)piperidin-3-yl)isoquinolin-5-amine], the Ki on ROCK1 (Avg, 10 μM ATP) was 952 nM; at ROCK2 (setting [1]), 182 nM.
On the same counts, the results for `c1cnc(CN2CC[C@@H](Nc3cccc4cnccc34)C2)nc1` [Compound 2.085, (R)-N-(1-(pyrimidin-2-ylmethyl)pyrrolidin-3-yl)isoquinolin-5-amine] are 2390 nM and 812 nM.
On the same counts, the results for `NC(=O)c1cccc(CN2CCC[C@@H](Nc3ccc4[nH]ncc4c3)C2)c1` [Compound 1.221, (R)-3-((3-(1H-indazol-5-ylamino)piperidin-1-yl)methyl)benzamide] are 264 nM and 30 nM.
Regarding `OCc1ccc(CN2CCC[C@@H](Nc3ccc4[nH]ncc4c3)C2)cc1` [Compound 1.232, (R)-(4-((3-(1H-indazol-5-ylamino)piperidin-1-yl)methyl)phenyl)methanol], the Ki at ROCK1 (Avg, 10 μM ATP) turned out to be 137 nM; at ROCK2 (setting [1]) it was 20.8 nM.
The like results for `Cc1ccc(CN2CC[C@@H](Nc3ccc4[nH]ncc4c3)C2)cc1OCCO` [Compound 1.276] were, in that order, 64.2 nM and 12.3 nM.
The like results for `c1cc(N[C@@H]2CCN(Cc3cncnc3)C2)c2ccncc2c1` [Compound 2.084, (R)-N-(1-(pyrimidin-5-ylmethyl)pyrrolidin-3-yl)isoquinolin-5-amine] were, in that order, 1170 nM and 350 nM.
`O=c1[nH]ccc2c(N[C@@H]3CCN(Cc4cccc(OCCO)c4)C3)cccc12` [Compound 2.092, (R)-5-(1-(3-(2-hydroxyethoxy)benzyl)pyrrolidin-3-ylamino)isoquinolin-1(2H)-one]: the Ki turned out to be 1130 nM on ROCK1 (Avg, 10 μM ATP) and 458 nM on ROCK2 (setting [1]).
Consider `FC(F)(F)c1cccc(CN2CCC[C@@H](Nc3ccc4[nH]ncc4c3)C2)c1` [Compound 1.190, (R)-N-(1-(3-(trifluoromethyl)benzyl)piperidin-3-yl)-1H-indazol-5-amine], for which the Ki at ROCK1 (Avg, 10 μM ATP) worked out at 326 nM; at ROCK2 (setting [1]) it was 71.8 nM.
The like results for `Cc1cccc(CN2CCC[C@@H](Nc3ccc4[nH]ncc4c3)C2)c1C` [Compound 1.172, (R)-N-(1-(2,3-dimethylbenzyl)piperidin-3-yl)-1H-indazol-5-amine] were, in that order, 103 nM and 20.5 nM.
As for `Fc1ccc(CN2CC[C@@H](Nc3cccc4cnccc34)C2)cc1F` [Compound 2.062, (R)-N-(1-(3,4-difluorobenzyl)pyrrolidin-3-yl)isoquinolin-5-amine], the Ki at ROCK1 (Avg, 10 μM ATP) stood at 63.4 nM; on ROCK2 (setting [1]), 30.5 nM.
The like results for `CC(=O)NCCOc1cccc(CN2CCC[C@@H](Nc3ccc4[nH]ncc4c3)C2)c1` [Compound 1.211, (R)-N-(2-(3-((3-(1H-indazol-5-ylamino)piperidin-1-yl)methyl)phenoxy)ethyl)acetamide] were, in that order, 395 nM and 57.6 nM.
For `COc1c(CN2CC[C@@H](Nc3cccc4cnccc34)C2)cccc1NS(C)(=O)=O` [Compound 2.096, (R)-N-(3-((3-(isoquinolin-5-ylamino)pyrrolidin-1-yl)methyl)-2-methoxyphenyl)methanesuifonamide], the Ki on ROCK1 (Avg, 10 μM ATP) amounted to 70.2 nM; on ROCK1 (average Ki) it was 70.2 nM; on ROCK2 (setting [1]), 9.6 nM; at ROCK2 (average Ki, read-out: ROCK2 Ki), 9.6 nM.
Consider `CS(=O)(=O)Nc1cccc(CN2CCC[C@H](Nc3cccc4cnccc34)C2)c1` [Compound 2.037, (S)-N-(3-((3-(isoquinolin-5-ylamino)piperidin-1-yl)methyl)phenyl)methanesulfonamide], for which the Ki came to 921 nM at ROCK1 (Avg, 10 μM ATP) and 182 nM at ROCK2 (setting [1]).
On the same counts, the results for `c1ccc(CN2CCC[C@H](Nc3cccc4cnccc34)C2)cc1` [Compound 2.050, (S)-N-(1-benzylpiperidin-3-yl)isoquinolin-5-amine] are 368 nM and 251 nM.
For the molecule `OCCOc1cc(CN2CC[C@@H](Nc3cccc4cnccc34)C2)ccc1F` [Compound 2.068, (R)-2-(2-fluoro-5-((3-(isoquinolin-5-ylamino)pyrrolidin-1-yl)methyl)phenoxy)ethanol], the inhibition constant (Ki) at ROCK1 (Avg, 10 μM ATP) was 8 nM; on ROCK1 (average Ki) it was 8 nM; at ROCK2 (setting [1]) it was 5.8 nM; on ROCK2 (average Ki, read-out: ROCK2 Ki) it was 5.8 nM.

The Ki is a dissociation constant, usually derived from enzyme kinetics or from competition with a known ligand.

Source of the values: patent US20090325959A1 (priority 2008, published 2009).
